Laboratory results reported in patent US5101027A, “Synthesis of mannojirimycin derivatives” (Monsanto Company, priority 1990, dated 1992).

Experiments:
α-Fucosidase = target: T1, α-Fucosidase (Homo sapiens, UniProt P04066); assay: % inhibition of human liver α-fucosidase catalysed hydrolysis; type: biochemical
T1 construct: from tissue; host or cells: human liver
T1 sequence (P04066 32-466): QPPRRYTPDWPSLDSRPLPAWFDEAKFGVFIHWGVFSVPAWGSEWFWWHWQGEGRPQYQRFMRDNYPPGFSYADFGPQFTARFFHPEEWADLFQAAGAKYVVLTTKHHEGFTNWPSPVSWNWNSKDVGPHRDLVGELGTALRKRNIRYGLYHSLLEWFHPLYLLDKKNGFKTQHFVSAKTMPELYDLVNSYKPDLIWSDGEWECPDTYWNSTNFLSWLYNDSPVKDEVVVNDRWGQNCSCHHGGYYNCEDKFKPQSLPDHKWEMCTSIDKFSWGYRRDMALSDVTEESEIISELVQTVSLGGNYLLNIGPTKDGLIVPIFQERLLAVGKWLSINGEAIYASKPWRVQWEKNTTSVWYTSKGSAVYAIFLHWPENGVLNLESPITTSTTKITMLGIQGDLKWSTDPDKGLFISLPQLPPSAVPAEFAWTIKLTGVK
Protocol: % Inhibition of human liver α-fucosidase and α-mannosidase
catalysed hydrolysis of 4-umbelliferyl pyrranosides at
1 mM concentration of inhibitor

human α-mannosidases = assay: inhibition of human liver α-mannosidases (summary of lysosomal, Golgi II and neutral); type: biochemical; conditions: for specificity and potency of inhibition of human α-mannosidases, HMJ compared with DMJ: HMJ (6) vs DMJ (5)
Excerpt: (§1) The relative potencies of these compounds as fucosidase inhibitors may be understood by considering them as analogues of α-L-fucose; all three compounds have the correct chirality of the secondary hydroxyl groups--the minimum requirement for inhibition of α-fucosidase. […] All the compounds are weaker inhibitors of α-fucosidase than is deoxyfuconojirimycin, since they all lack a lipophilic methyl substituent with correct configuration.

α-mannosidases = conditions: literature; cited from earlier work
β-mannosidase = assay: inhibition of human liver β-mannosidase; type: biochemical
Excerpt: as §1

human liver α-fucosidase = conditions: literature; compared with deoxyfuconojirimycin (4); cited from earlier work
α-glucosidase = conditions: literature; cited from earlier work

inhibition of α-fucosidase (in words) (α-Fucosidase)	SMILES	inhibition of β-mannosidase (in words) (β-mannosidase)	specificity and potency of inhibition of human α-mannosidases, HMJ compared with DMJ (human α-mannosidases)	further results
powerful inhibitors of α-fucosidase	OC[C@@H]1N[C@H](CO)[C@@H](O)[C@@H](O)[C@@H]1O [6-Epi-homomannojirimycin (8), 2,6-dideoxy-2,6-imino-L-glycero-D-talo-heptitol]			inhibition of α-mannosidases (in words) (human α-mannosidases): did not inhibit any α-mannosidase
only a weak inhibitor of this enzyme	OC[C@H]1N[C@H](CO)[C@@H](O)C(O)[C@@H]1O (stereo partly drawn) [Homomannojirimycin (6), 2,6-dideoxy-2,6-imino-D-glycero-D-talo-heptitol]	Neither compound inhibited β-mannosidase	very similar	
	C[C@@H]1N[C@H](CO)[C@@H](O)[C@H](O)[C@@H]1O [homofuconojirimycin (3), homofuconojirimycin]			inhibition of human liver α-fucosidase relative to deoxyfuconojirimycin (4) (human liver α-fucosidase): as powerful an inhibitor of human liver α-fucosidase as is deoxyfuconojirimycin (4)
	OC[C@H]1N[C@H](CO[C@@H]2O[C@H](CO)[C@@H](O)[C@H](O)[C@H]2O)[C@H](O)[C@@H](O)[C@@H]1O [β-glucopyranosyl derivative (2)]			α-glucosidase inhibition (in words) (α-glucosidase): powerful α-glucosidase inhibitor

SMILES	inhibition of α-fucosidase (in words) (α-Fucosidase)	inhibition of β-mannosidase (in words) (β-mannosidase)	specificity and potency of inhibition of human α-mannosidases, HMJ compared with DMJ (human α-mannosidases)	further results
OC[C@H]1NC[C@@H](O)[C@@H](O)[C@@H]1O [Deoxymannojirimycin (5), Deoxymannojirimycin]	powerful inhibitors of α-fucosidase	Neither compound inhibited β-mannosidase	very similar	inhibition of α-mannosidases in general (in words) (α-mannosidases): relatively weak inhibitor of α-mannosidases in general
